# Laboratory results published in patent publication US20240101570A1 (AMGEN INC., priority 2020, published 2024).
# Columns and labels:
# HCT116 WT cells = assay: HCT116 WT cell proliferation / viability (CellTiter-Glo, 6 days); assay type: cell-based; conditions: Homo sapiens, HCT-116, 144 h, HCT116 WT cells, 6 days, CellTiter-Glo; read-out: HCT-116 WT IC50
# Procedure, shortened: (§1)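 IC50 values derive from sigmoidal dose-response fits, some with Hill slope fixed at −1 and top constrained to 100%, others from 4-parameter logistic models. They reflect CellTiter-Glo viability after 6 days of compound exposure at up to 10 or 50 μM.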
# HCT116 MTAP null cells = assay: HCT116 MTAP null cell proliferation / viability (CellTiter-Glo, 6 days); assay type: cell-based; conditions: HCT116-MTAP null, 144 h, HCT116 MTAP null cells, 6 days, CellTiter-Glo; read-out: HCT-116 MTAP null IC50
# Procedure, shortened: as §1
IC50 (HCT116 WT cells),IC50 (HCT116 MTAP null cells),SMILES
6490 nM,367 nM,"COC[C@@H](C)N(Cc1ccc(Br)nn1)C(=O)c1cnc2nc(N)c3c(c2c1)COC3 [Example 681, 4-amino-N-((6-bromo-3-pyridazinyl)methyl)-N-((2R)-1-methoxy-2-propanyl)-1,3-dihydrofuro[3,4-c][1,8]naphthyridine-8-carboxamide]"
3400 nM,87 nM,"N#Cc1ccc(CN(CC2CC2)C(=O)c2cc3c4c(c(N)nc3cn2)COC4)nc1 [Example 682, 4-amino-N-((5-cyano-2-pyridinyl)methyl)-N-(cyclopropylmethyl)-1,3-dihydrofuro[3,4-c][1,7]naphthyridine-8-carboxamide]"
> 10000 nM,235 nM,"COc1ccc(CN(C(=O)c2cc3c4c(c(N)nc3cn2)COC4)C(C)C)nc1Cl [Example 683, 4-amino-N-((6-chloro-5-methoxy-2-pyridinyl)methyl)-N-(2-propanyl)-1,3-dihydrofuro[3,4-c][1,7]naphthyridine-8-carboxamide]"
> 10000 nM,342 nM,"CC(C)N(Cc1ccc(Br)nn1)C(=O)c1cc2c3c(c(N)nc2cn1)COC3 [Example 684, 4-amino-N-((6-bromo-3-pyridazinyl)methyl)-N-(2-propanyl)-1,3-dihydrofuro[3,4-c][1,7]naphthyridine-8-carboxamide]"
> 10000 nM,201 nM,"COc1nc(CN(C(=O)c2cc3c4c(c(N)nc3cn2)COC4)C(C)C)ccc1Cl [Example 685, 4-amino-N-((5-chloro-6-methoxy-2-pyridinyl)methyl)-N-(2-propanyl)-1,3-dihydrofuro[3,4-c][1,7]naphthyridine-8-carboxamide]"
8800 nM,445 nM,"C[C@H](c1ncccn1)N(Cc1cc2c(cn1)OCCC2)C(=O)c1cc2c3c(c(N)nc2cn1)COC3 [Example 686, 4-amino-N-(3,4-dihydro-2H-pyrano[2,3-c]pyridin-6-ylmethyl)-N-((1R)-1-(2-pyrimidinyl)ethyl)-1,3-dihydrofuro[3,4-c][1,7]naphthyridine-8-carboxamide]"
3440 nM,81 nM,"Nc1nc2cnc(C(=O)N(Cc3ccc(C(F)(F)F)nn3)CC3CC3)cc2c2c1COC2 [Example 688, 4-amino-N-(cyclopropylmethyl)-N-((6-(trifluoromethyl)-3-pyridazinyl)methyl)-1,3-dihydrofuro[3,4-c][1,7]naphthyridine-8-carboxamide]"
2580 nM,96 nM,"Nc1nc2cnc(C(=O)N(Cc3ccc(C(F)(F)F)cn3)C34CC(C3)C4)cc2c2c1COC2 [Example 689, 4-amino-N-(bicyclo[1.1.1]pentan-1-yl)-N-((5-(trifluoromethyl)-2-pyridinyl)methyl)-1,3-dihydrofuro[3,4-c][1,7]naphthyridine-8-carboxamide]"
4170 nM,71 nM,"Nc1nc2cnc(C(=O)N(Cc3ccc(C(F)(F)F)cn3)c3cnn(C4CC4)c3)cc2c2c1COC2 [Example 690, 4-amino-N-(1-cyclopropyl-1H-pyrazol-4-yl)-N-((5-(trifluoromethyl)-2-pyridinyl)methyl)-1,3-dihydrofuro[3,4-c][1,7]naphthyridine-8-carboxamide]"
3880 nM,127 nM,"Cn1cc(N(Cc2ccc(C(F)F)cn2)C(=O)c2cc3c4c(c(N)nc3cn2)COC4)cn1 [Example 691, 4-amino-N-((5-(difluoromethyl)-2-pyridinyl)methyl)-N-(1-methyl-1H-pyrazol-4-yl)-1,3-dihydrofuro[3,4-c][1,7]naphthyridine-8-carboxamide]"
> 10000 nM,449 nM,"CN(Cc1ccc(C(F)(F)F)cc1)C(=O)c1cc2c3c(c(N)nc2cn1)COC3 [Example 692, 4-amino-N-methyl-N-(4-(trifluoromethyl)benzyl)-1,3-dihydrofuro[3,4-c][1,7]naphthyridine-8-carboxamide]"
> 10000 nM,2020 nM,"CN(Cc1ccc(C(F)(F)F)nc1)C(=O)c1cc2c3c(c(N)nc2cn1)COC3 [Example 693, 4-amino-N-methyl-N-((6-(trifluoromethyl)-3-pyridinyl)methyl)-1,3-dihydrofuro[3,4-c][1,7]naphthyridine-8-carboxamide]"
> 10000 nM,415 nM,"CN(Cc1ccc(Cl)cn1)C(=O)c1cc2c3c(c(N)nc2cn1)COC3 [Example 694, 4-amino-N-((5-chloro-2-pyridinyl)methyl)-N-methyl-1,3-dihydrofuro[3,4-c][1,7]naphthyridine-8-carboxamide]"
4990 nM,210 nM,"CCN(Cc1ccc(C(F)(F)F)nn1)C(=O)c1ccc2nc(N)c3c(c2c1)COC3 [Example 695, 4-amino-N-ethyl-N-((6-(trifluoromethyl)-3-pyridazinyl)methyl)-1,3-dihydrofuro[3,4-c]quinoline-8-carboxamide]"
> 10000 nM,261 nM,"CCN(Cc1ccc(C(F)(F)F)nn1)C(=O)c1cc2c3c(c(N)nc2cn1)COC3 [Example 696, 4-amino-N-ethyl-N-((6-(trifluoromethyl)-3-pyridazinyl)methyl)-1,3-dihydrofuro[3,4-c][1,7]naphthyridine-8-carboxamide]"
4500 nM,206 nM,"CCN(Cc1ccc(Cl)cn1)C(=O)c1cc2c3c(c(N)nc2cn1)COC3 [Example 698, 4-amino-N-((5-chloro-2-pyridinyl)methyl)-N-ethyl-1,3-dihydrofuro[3,4-c][1,7]naphthyridine-8-carboxamide]"
7250 nM,193 nM,"CCN(Cc1ccc(Cl)cn1)C(=O)c1ccc2nc(N)c3c(c2c1)COC3 [Example 701, 4-amino-N-((5-chloro-2-pyridinyl)methyl)-N-ethyl-1,3-dihydrofuro[3,4-c]quinoline-8-carboxamide]"
4120 nM,470 nM,"CN(Cc1ccc(Cl)cn1)C(=O)c1ccc2nc(N)c3c(c2c1)COC3 [Example 702, 4-amino-N-((5-chloro-2-pyridinyl)methyl)-N-methyl-1,3-dihydrofuro[3,4-c]quinoline-8-carboxamide]"
8150 nM,337 nM,"CCN(Cc1ccc(C(F)(F)F)nc1)C(=O)c1ccc2nc(N)c3c(c2c1)COC3 [Example 703, 4-amino-N-ethyl-N-((6-(trifluoromethyl)-3-pyridinyl)methyl)-1,3-dihydrofuro[3,4-c]quinoline-8-carboxamide]"
> 10000 nM,549 nM,"CCN(Cc1ccc(C(F)(F)F)nc1)C(=O)c1cc2c3c(c(N)nc2cn1)COC3 [Example 704, 4-amino-N-ethyl-N-((6-(trifluoromethyl)-3-pyridinyl)methyl)-1,3-dihydrofuro[3,4-c][1,7]naphthyridine-8-carboxamide]"
3450 nM,172 nM,"CCN(Cc1ccc(C(F)(F)F)cc1)C(=O)c1ccc2nc(N)c3c(c2c1)COC3 [Example 706, 4-amino-N-ethyl-N-(4-(trifluoromethyl)benzyl)-1,3-dihydrofuro[3,4-c]quinoline-8-carboxamide]"
2870 nM,106 nM,"CCN(Cc1ccc(C(F)(F)F)cc1)C(=O)c1cc2c3c(c(N)nc2cn1)COC3 [Example 707, 4-amino-N-ethyl-N-(4-(trifluoromethyl)benzyl)-1,3-dihydrofuro[3,4-c][1,7]naphthyridine-8-carboxamide]"
8220 nM,153 nM,"CCN(Cc1ccc(Br)nn1)C(=O)c1ccc2nc(N)c3c(c2c1)COC3 [Example 708, 4-amino-N-((6-bromo-3-pyridazinyl)methyl)-N-ethyl-1,3-dihydrofuro[3,4-c]quinoline-8-carboxamide]"
> 10000 nM,484 nM,"CCN(Cc1ccc(Br)nn1)C(=O)c1cc2c3c(c(N)nc2cn1)COC3 [Example 710, 4-amino-N-((6-bromo-3-pyridazinyl)methyl)-N-ethyl-1,3-dihydrofuro[3,4-c][1,7]naphthyridine-8-carboxamide]"
4780 nM,148 nM,"Cn1cc(N(Cc2ccc(C(F)(F)F)nn2)C(=O)c2cc3c4c(c(N)nc3cn2)COC4)cn1 [Example 711, 4-amino-N-(1-methyl-1H-pyrazol-4-yl)-N-((6-(trifluoromethyl)-3-pyridazinyl)methyl)-1,3-dihydrofuro[3,4-c][1,7]naphthyridine-8-carboxamide]"
> 50000 nM,2000 nM,"Nc1nc2cnc(C(=O)N(Cc3ccc(C(F)(F)F)nn3)CC(F)(F)F)cc2c2c1COC2 [Example 712, 4-amino-N-(2,2,2-trifluoroethyl)-N-((6-(trifluoromethyl)-3-pyridazinyl)methyl)-1,3-dihydrofuro[3,4-c][1,7]naphthyridine-8-carboxamide]"
> 50000 nM,5110 nM,"Nc1nc2ccc(C(=O)N(Cc3ccc(C(F)(F)F)nn3)C3COC3)cc2c2c1COC2 [Example 713, 4-amino-N-(3-oxetanyl)-N-((6-(trifluoromethyl)-3-pyridazinyl)methyl)-1,3-dihydrofuro[3,4-c]quinoline-8-carboxamide]"
124 nM,8 nM,"Cn1cc(N(Cc2ccc(C(F)(F)F)cn2)C(=O)c2cc3c4c(c(N)nc3cc2F)COC4)cn1 [Example 714, 4-amino-7-fluoro-N-(1-methyl-1H-pyrazol-4-yl)-N-((5-(trifluoromethyl)-2-pyridinyl)methyl)-1,3-dihydrofuro[3,4-c]quinoline-8-carboxamide]"
70 nM,6 nM,"Cn1cc(N(Cc2ccc(C(F)(F)F)cn2)C(=O)c2cc3c4c(c(N)nc3cc2Cl)COC4)cn1 [Example 715, 4-amino-7-chloro-N-(1-methyl-1H-pyrazol-4-yl)-N-((5-(trifluoromethyl)-2-pyridinyl)methyl)-1,3-dihydrofuro[3,4-c]quinoline-8-carboxamide]"
